This is an account of results in patent US4209527A, “Benzimidazolone derivatives” (Pfizer Inc., priority 1979, dated 1980).

Structures can show the parent of a compound that is named as a salt.

System in one series: not listed separately
In words: solubility in water. To be noted: amorphous powder, freeze-dried. It is filed as physicochemical. As to the method: The sodium salt of 3-benzyl-2-oxo-1-benzimidazolineacetic acid is prepared by dissolving said compound in water containing an equivalent amount in moles of sodium hydroxide and then freeze-drying the mixture.
With `O=C(O)Cn1c(=O)n(Cc2ccccc2)c2ccccc21` [Example 35, sodium salt of 3-benzyl-2-oxo-1-benzimidazolineacetic acid], the solubility in water result is on record as “freely-soluble in water”.

System in the next series: not listed separately
In words: toxic side effects / untoward pharmacological side reactions. Format: in vivo, rat. To be noted: diabetic rats, oral, 2.5 mg./kg. to 25 mg./kg. From the text: As previously indicated, the 3-(substituted methyl)-2-oxo-1-benzimidazolinealkanoic acid final products of this invention are all readily adapted to therapeutic use as aldose reductase inhibitors for the control of chronic diabetic complications, in view of their ability to reduce lens sorbitol levels in diabetic subjects to a statistically significant degree. […] Furthermore, the herein described compounds of this invention can be administered by either the oral or parenteral routes of administration, for the present purposes at hand, without causing any significant untoward pharmacological side reactions to occur in the subject to whom they are so administered. In general, these compounds are ordinarily administered in dosages ranging from about 0.25 mg. to about 25 mg. per kg. of body weight per day, although variations will necessarily occur depending upon the weight and condition of the subject being treated and the particular route of administration chosen.
With `O=C(O)Cn1c(=O)n(Cc2ccccc2)c2ccccc21` [Example 15, 3-benzyl-2-oxo-1-benzimidazolineacetic acid], the “signs of toxic side effects” value is reported as “without showing any substantial signs of toxic side effects”.

Another series concerns the target T1, aldose reductase (Bos taurus, UniProt P16116).
T1 construct: partially purified aldose reductase enzyme obtained from calf lens; from tissue; host or cells: calf lens
As to the kind of experiment: inhibition of aldose reductase enzyme activity (procedure of S. Hayman et al., modified by K. Sestanj et al.). To be noted: 10^-4 M; partially purified enzyme from calf lens. Format: biochemical. As to the method: The activity of the compounds of the present invention, as agents for the control of chronic diabetic complications, is determined by their ability to successfully pass one or more of the following standard biological and/or pharmacological tests, viz., (1) measuring their ability to inhibit the enzyme activity of isolated aldose reductase; (2) measuring their ability to reduce or inhibit sorbitol accumulation in the sciatic nerve of acutely streptozotocinized (i.e., diabetic) rats; (3) measuring their ability to reverse already-elevated sorbitol levels in the sciatic nerve and lens of chronic streptozotocin-induced diabetic rats; (4) measuring their ability to prevent or inhibit galactitol formation in the lens of acutely galactosemic rats and (5) measuring their ability to delay cataract formation and reduce the severity of lens opacities in chronic galactosemic rats.
The following 3-(substituted methyl)-2-oxo-1-benzimidazolinealkanoic acid final products of Examples 15-24 and 26-28, respectively, were tested at a concentration level of 10^-4 M for their ability to reduce or inhibit aldose reductase enzyme activity via the procedure of S. Hayman et al., as described in the Journal of Biological Chemistry, Vol. 240, p. 877 (1965) and as modified by K. Sestanj et al. in U.S. Pat. No. 3,821,383. In every case, the substrate employed was partially purified aldose reductase enzyme obtained from calf lens.
The inhibition is the drop in the measured response relative to a control, in per cent. High values mean strong suppression, low ones little suppression. The molecule `O=C(O)Cn1c(=O)n(Cc2ccccc2)c2ccccc21` [Example 15, 3-benzyl-2-oxo-1-benzimidazolineacetic acid] showed an inhibition at 100 µM of 84%.
On to `Cc1ccc(Cn2c(=O)n(CC(=O)O)c3ccccc32)cc1` [Example 16, 3-(p-xylyl)-2-oxo-1-benzimidazolineacetic acid], for which the inhibition at 100 µM worked out at 86%.
Same read-out and setting: then `O=C(O)Cn1c(=O)n(Cc2ccc(Cl)cc2)c2ccccc21` [Example 17, 3-(p-chlorobenzyl)-2-oxo-1-benzimidazolineacetic acid], with 88%.
Consider `COc1ccc(Cn2c(=O)n(CC(=O)O)c3ccccc32)cc1` [Example 18, 3-(p-methoxybenzyl)-2-oxo-1-benzimidazolineacetic acid], for which the inhibition at 100 µM stood at 88%.
On the same count and under the same terms, then `O=C(O)Cn1c(=O)n(Cc2ccc(Cl)c(Cl)c2)c2ccccc21` [Example 19, 3-(3,4-dichlorobenzyl)-2-oxo-1-benzimidazolineacetic acid], with 89%; and `O=C(O)Cn1c(=O)n(Cc2ccc(Cl)cc2Cl)c2ccccc21` [Example 20, 3-(2,4-dichlorobenzyl)-2-oxo-1-benzimidazolelineacetic acid], with 87%; and `O=C(O)Cn1c(=O)n(Cc2cccc3ccccc23)c2ccccc21` [Example 21, 3-(α-naphthyl)methyl-2-oxo-1-benzimidazolineacetic acid], with 92%.
Still for that read-out and setting: the value for `O=C(O)Cn1c(=O)n(Cc2ccc3ccccc3c2)c2ccccc21` [Example 22, 3-(β-naphthyl)methyl-2-oxo-1-benzimidazolineacetic acid] was 86%; that for `O=C(O)Cn1c(=O)n(CC(=O)c2ccc(Cl)cc2Cl)c2ccccc21` [Example 23, 3-(2,4-dichlorobenzoylmethyl)-2-oxo-1-benzimidazolineacetic acid] was 71%; that for `O=C(O)Cn1c(=O)n(Cc2ccccc2)c2cc(Cl)c(Cl)cc21` [Example 24, 3-benzyl-5,6-dichloro-2-oxo-1-benzimidazolineacetic acid] was 89%.
On the same count and under the same terms, the value for `O=C(O)Cn1c(=O)n(Cc2ccc(Cl)c(Cl)c2)c2cc(Cl)c(Cl)cc21` [Example 26, 3-(3,4-dichlorobenzyl)-5,6-dichloro-2-oxo-1-benzimidazolineacetic acid] was 82%; that for `CC(C(=O)O)n1c(=O)n(Cc2ccc(Cl)c(Cl)c2)c2ccccc21` (stereo not drawn) [Example 27, α-[3-(3,4-dichlorobenzyl)-2-oxo-1-benzimidazoline]propionic acid] was 91%; that for `O=C(O)CCn1c(=O)n(Cc2ccc(Cl)c(Cl)c2)c2ccccc21` [Example 28, β-[3-(3,4-dichlorobenzyl)-2-oxo-1-benzimidazoline]propionic acid] was 90%.
